Results as given in ChEMBL document CHEMBL2412969, “Antihyperglycemic and antihyperlipidemic activities of 2-(4-[(2-hydroxybenzyl) amino]-phenyl amino-methyl)-phenol in STZ induced diabetic rats” (Eur J Med Chem, 2013).
Active and inactive are the calls of the source. No cut-off for these calls is given here.

Legend:
[1] = tested on: Rattus norvegicus; experiment: Antihyperglycemic activity in Wistar albino rat streptozotocin-induced diabetic model assessed as reduction of blood glucose level at 30 mg/kg, po after 4 hrs (reference value: 373.5 +/- 15.6 mg/dl); format: functional
[2] = tested on: Rattus norvegicus; experiment: Renalprotective activity in Wistar albino rat assessed as protection against streptozotocin-induced increase in urea level in blood at 30 mg/kg, po qd for 30 days; format: functional
[3] = tested on: Rattus norvegicus; experiment: Renaltoxicity in Wistar albino rat assessed as creatinine level in blood at 30 mg/kg, po qd for 30 days; format: organism-based; set-up: dose 30 mg/kg, route oral; settings: in vivo, 720 h
[4] = tested on: Rattus norvegicus; experiment: Antihyperglycemic activity in Wistar albino rat streptozotocin-induced diabetic model assessed as reduction of blood glucose level at 20 mg/kg, po after 1 hr (reference value: 389.16 +/- 19 mg/dl); format: functional
[5] = tested on: Rattus norvegicus; experiment: Hypoglycemic activity in Wistar albino rat assessed as reduction of blood glucose level at 20 mg/kg, po after 4 hrs (reference value: 75.8 +/- 4.7 mg/dl); format: ADME, organism-based; set-up: dose 20 mg/kg, route oral; settings: in vivo
[6] = tested on: Rattus norvegicus; experiment: Antihyperglycemic activity in Wistar albino rat streptozotocin-induced diabetic model assessed as reduction of blood glucose level at 60 mg/kg, po after 4 hrs (reference value: 373.5 +/- 15.6 mg/dl); format: functional
[7] = tested on: Rattus norvegicus; experiment: Antihyperglycemic activity in Wistar albino rat streptozotocin-induced diabetic model assessed as reduction of blood glucose level at 20 mg/kg, po after 4 hrs (reference value: 373.5 +/- 15.6 mg/dl); format: functional
[8] = tested on: Rattus norvegicus; experiment: Hepatoprotective activity in Wistar albino rat assessed as protection against streptozotocin-induced increase in AST, ALT and ALP level in serum at 30 mg/kg, po qd for 30 days; format: functional, organism-based; set-up: dose 30 mg/kg
[9] = tested on: Rattus norvegicus; experiment: Antihyperglycemic activity in Wistar albino rat streptozotocin-induced diabetic model assessed as reduction of blood glucose level at 20 mg/kg, po after 5 hrs (reference value: 372.2 +/- 16.6 mg/dl); format: functional
[10] = tested on: Rattus norvegicus; experiment: Antihyperglycemic activity in Wistar albino rat streptozotocin-induced diabetic model assessed as reduction of blood glucose level at 20 mg/kg, po after 6 hrs (reference value: 372.5 +/- 15.6 mg/dl); format: functional
[11] = tested on: Rattus norvegicus; experiment: Antihyperglycemic activity in Wistar albino rat streptozotocin-induced diabetic model assessed as reduction of fasting blood glucose level at 30 mg/kg, po qd measured on day 15 (reference value: 404.2 +/- 29.15 mg/dl); format: functional
[12] = tested on: Rattus norvegicus; experiment: Antihyperlipidemic activity in Wistar albino rat streptozotocin-induced diabetic model assessed as reduction of serum total cholesterol level at 30 mg/kg, po qd for 30 days; format: functional, organism-based; set-up: dose 30 mg/kg
[13] = tested on: Rattus norvegicus; experiment: Hypoglycemic activity in Wistar albino rat assessed as reduction of blood glucose level at 60 mg/kg, po after 5 hrs (reference value: 73.8 +/- 4.5 mg/dl); format: ADME, organism-based; set-up: dose 60 mg/kg, route oral; settings: in vivo
[14] = tested on: Rattus norvegicus; experiment: Hypoglycemic activity in Wistar albino rat assessed as reduction of fasting blood glucose level at 30 mg/kg, po qd measured on day 30 (reference value: 94.8 +/- 10.4 mg/dl); format: ADME, organism-based; set-up: dose 30 mg/kg, route oral; settings: in vivo
[15] = tested on: Rattus norvegicus; experiment: Antihyperglycemic activity in Wistar albino rat streptozotocin-induced diabetic model assessed as increase of body weight at 30 mg/kg, po qd measured on day 15 (reference value: -30.3%); format: functional
[16] = tested on: Rattus norvegicus; experiment: Antihyperglycemic activity in Wistar albino rat streptozotocin-induced diabetic model assessed as reduction of blood glucose level at 60 mg/kg, po after 5 hrs (reference value: 372.2 +/- 16.6 mg/dl); format: functional
[17] = tested on: Rattus norvegicus; experiment: Hypoglycemic activity in Wistar albino rat assessed as reduction of blood glucose level at 30 mg/kg, po after 1 hr (reference value: 71.26 +/- 4.3 mg/dl); format: ADME, organism-based; set-up: dose 30 mg/kg, route oral; settings: in vivo
[18] = tested on: Rattus norvegicus; experiment: Hypoglycemic activity in Wistar albino rat assessed as reduction of blood glucose level at 30 mg/kg, po after 3 hrs (reference value: 76.3 +/- 5.4 mg/dl); format: ADME, organism-based; set-up: dose 30 mg/kg, route oral; settings: in vivo
[19] = tested on: Rattus norvegicus; experiment: Hypoglycemic activity in Wistar albino rat assessed as reduction of blood glucose level at 60 mg/kg, po after 3 hrs (reference value: 76.3 +/- 5.4 mg/dl); format: ADME, organism-based; set-up: dose 60 mg/kg, route oral; settings: in vivo
[20] = tested on: Rattus norvegicus; experiment: Hypoglycemic activity in Wistar albino rat assessed as reduction of blood glucose level at 20 mg/kg, po after 3 hrs (reference value: 76.3 +/- 5.4 mg/dl); format: ADME, organism-based; set-up: dose 20 mg/kg, route oral; settings: in vivo
[21] = tested on: Rattus norvegicus; experiment: Hypoglycemic activity in Wistar albino rat assessed as reduction of blood glucose level at 20 mg/kg, po after 1 hr (reference value: 71.26 +/- 4.3 mg/dl); format: ADME, organism-based; set-up: dose 20 mg/kg, route oral; settings: in vivo
[22] = tested on: Rattus norvegicus; experiment: Antihyperglycemic activity in Wistar albino rat streptozotocin-induced diabetic model assessed as reduction of blood glucose level at 60 mg/kg, po after 6 hrs (reference value: 372.5 +/- 15.6 mg/dl); format: functional
[23] = tested on: Rattus norvegicus; experiment: Antihyperglycemic activity in Wistar albino rat streptozotocin-induced diabetic model assessed as reduction of blood glucose level at 30 mg/kg, po after 1 hr (reference value: 389.16 +/- 19 mg/dl); format: functional
[24] = tested on: Rattus norvegicus; experiment: Antihyperlipidemic activity in Wistar albino rat streptozotocin-induced diabetic model assessed as reduction of serum triglyceride level at 30 mg/kg, po qd for 30 days; format: functional, organism-based; set-up: dose 30 mg/kg
[25] = tested on: Rattus norvegicus; experiment: Antihyperlipidemic activity in Wistar albino rat streptozotocin-induced diabetic model assessed as increase of serum HDL-cholesterol level at 30 mg/kg, po qd for 30 days; format: functional, organism-based; set-up: dose 30 mg/kg
[26] = tested on: Rattus norvegicus; experiment: Antihyperglycemic activity in Wistar albino rat streptozotocin-induced diabetic model assessed as reduction of fasting blood glucose level at 30 mg/kg, po qd measured on day 30 relative to control; format: functional
[27] = tested on: Rattus norvegicus; experiment: Hypoglycemic activity in Wistar albino rat assessed as reduction of blood glucose level at 60 mg/kg, po after 2 hrs (reference value: 76.5 +/- 3.7 mg/dl); format: ADME, organism-based; set-up: dose 60 mg/kg, route oral; settings: in vivo
[28] = tested on: Rattus norvegicus; experiment: Antihyperglycemic activity in Wistar albino rat streptozotocin-induced diabetic model assessed as reduction of blood glucose level at 30 mg/kg, po after 6 hrs (reference value: 372.5 +/- 15.6 mg/dl); format: functional
[29] = tested on: Rattus norvegicus; experiment: Antihyperglycemic activity in Wistar albino rat streptozotocin-induced diabetic model assessed as reduction of blood glucose level at 60 mg/kg, po after 1 hr (reference value: 389.16 +/- 19 mg/dl); format: functional
[30] = tested on: Rattus norvegicus; experiment: Hypoglycemic activity in Wistar albino rat assessed as reduction of blood glucose level at 20 mg/kg, po after 2 hrs (reference value: 76.5 +/- 3.7 mg/dl); format: ADME, organism-based; set-up: dose 20 mg/kg, route oral; settings: in vivo
[31] = tested on: Rattus norvegicus; experiment: Toxicity in Wistar albino rat assessed as increase of body weight at 30 mg/kg, po qd measured on day 30 (reference value: 8.82%); format: organism-based; set-up: dose 30 mg/kg, route oral; settings: in vivo
[32] = tested on: Rattus norvegicus; experiment: Antihyperglycemic activity in Wistar albino rat streptozotocin-induced diabetic model assessed as reduction of blood glucose level at 30 mg/kg, po after 2 hrs (reference value: 386.66 +/- 17.5 mg/dl); format: functional
[33] = tested on: Rattus norvegicus; experiment: Antihyperglycemic activity in Wistar albino rat streptozotocin-induced diabetic model assessed as reduction of blood glucose level at 20 mg/kg, po after 2 hrs (reference value: 386.66 +/- 17.5 mg/dl); format: functional
[34] = tested on: Rattus norvegicus; experiment: Antihyperglycemic activity in Wistar albino rat streptozotocin-induced diabetic model assessed as reduction of blood glucose level at 60 mg/kg, po after 2 hrs (reference value: 386.66 +/- 17.5 mg/dl); format: functional

Activity [5]: 72 mg/dL | Activity [13]: 78 mg/dL | Activity [14]: 98.67 mg/dL | Activity [17]: 74.16 mg/dL | Activity [18]: 74.16 mg/dL | Activity [19]: 73.6 mg/dL | Activity [20]: 74.16 mg/dL | Activity [21]: 74.12 mg/dL | Activity [27]: 71.3 mg/dL | Activity [30]: 73.16 mg/dL
Compound: Oc1ccccc1CNc1ccc(NCc2ccccc2O)cc1
Activity [1]: 215.6 mg/dL | Activity [2]: 54.02 mg/dL | Activity [3]: 0.37 mg/dL | Activity [4]: 357.5 mg/dL | Activity [6]: 54.8 mg/dL | Activity [7]: 265.16 mg/dL | Activity [8]: Active | Activity [9]: 204.8 mg/dL | Activity [10]: 223.28 mg/dL | Activity [11]: 247.5 mg/dL | Activity [12]: Active | Activity [15]: 8.57% | Activity [16]: 49.1 mg/dL | Activity [22]: 36.8 mg/dL | Activity [23]: 315.2 mg/dL | Activity [24]: Active | Activity [25]: Active | Activity [26]: 113.5 mg/dL | Activity [28]: 102 mg/dL | Activity [29]: 233.16 mg/dL | Activity [31]: 2.94% | Activity [32]: 252.1 mg/dL | Activity [33]: 312.83 mg/dL | Activity [34]: 109.5 mg/dL
